US11192899B2 (MERCK PATENT GMBH, priority 2017, dated 2021)

Assays:
Type in all cases: cell-based
human A2A receptor = target: T1, human A2A receptor (Homo sapiens, UniProt P29274); assay: cAMP HTRF functional assay, recombinant HEK293 cells expressing human A2A receptor, agonist NECA
T1 construct: expressed in transfected cells; host or cells: HEK293
Description: (§1) The functional activities of human A2A, A2B, A1 and A3 receptors were determined by quantification of cAMP, being the second messenger for adenosine receptors.
(§2) Obtained raw data were normalized against the inhibitor control and the neural control (DMSO) and the normalized data were fitted using GeneData software.

human A1 receptor = target: T2, human A1 receptor (Homo sapiens, UniProt P30542); assay: cAMP HTRF functional assay, recombinant CHO cells expressing human A1 receptor, forskolin and agonist CPA
T2 construct: expressed in transfected cells; host or cells: CHO
T2 sequence (P30542 1-326): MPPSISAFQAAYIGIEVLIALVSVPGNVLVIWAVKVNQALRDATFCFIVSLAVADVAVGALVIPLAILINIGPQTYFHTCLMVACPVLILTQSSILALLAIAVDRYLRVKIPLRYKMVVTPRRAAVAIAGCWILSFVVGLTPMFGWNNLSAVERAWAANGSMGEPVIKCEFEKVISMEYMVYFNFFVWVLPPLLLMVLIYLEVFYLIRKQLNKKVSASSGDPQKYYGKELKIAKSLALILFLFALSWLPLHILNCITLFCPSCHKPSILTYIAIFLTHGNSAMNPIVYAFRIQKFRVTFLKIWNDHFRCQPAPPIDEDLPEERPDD
Description: as §1
(§3) For human A1 and A3 receptors, recombinant CHO cells, expressing either A1 or A3-receptor, were used. As both receptors couple to Gi proteins, the assay protocol was adapted:
(§4) Cells were seeded into 384-well plates, forskolin, test compounds and agonists (CPA for A1- and IB-MECA for A3-receptor) were added. After 30 min incubation, HTRF reagents (cAMP dynamic 2, Cis Bio) were added and the cellular cAMP levels were determined using the ENVISION (Perkin Elmer) plate reader.
as §2

human A3 receptor = target: T3, human A3 receptor (Homo sapiens, UniProt P0DMS8); assay: cAMP HTRF functional assay, recombinant CHO cells expressing human A3 receptor, forskolin and agonist IB-MECA
T3 construct: expressed in transfected cells; host or cells: CHO
T3 sequence (P0DMS8 1-318): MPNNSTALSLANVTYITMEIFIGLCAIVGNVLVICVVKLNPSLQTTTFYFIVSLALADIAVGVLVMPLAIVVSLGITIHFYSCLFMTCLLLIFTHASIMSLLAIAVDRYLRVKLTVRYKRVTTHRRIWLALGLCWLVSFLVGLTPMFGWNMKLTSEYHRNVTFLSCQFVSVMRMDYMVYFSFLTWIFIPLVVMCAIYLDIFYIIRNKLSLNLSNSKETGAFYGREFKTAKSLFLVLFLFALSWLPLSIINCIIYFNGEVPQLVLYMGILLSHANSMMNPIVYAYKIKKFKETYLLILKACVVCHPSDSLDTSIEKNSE
Description: as §1, §3, §4, §2

A2B receptors = target: T4, A2B receptors (Homo sapiens, UniProt P29275); assay: cAMP HTRF functional assay, recombinant HEK293 cells expressing human A2B receptor, agonist NECA; parameters: expressed in transfected cells; host or cells: HEK293
T4 sequence (P29275 1-332): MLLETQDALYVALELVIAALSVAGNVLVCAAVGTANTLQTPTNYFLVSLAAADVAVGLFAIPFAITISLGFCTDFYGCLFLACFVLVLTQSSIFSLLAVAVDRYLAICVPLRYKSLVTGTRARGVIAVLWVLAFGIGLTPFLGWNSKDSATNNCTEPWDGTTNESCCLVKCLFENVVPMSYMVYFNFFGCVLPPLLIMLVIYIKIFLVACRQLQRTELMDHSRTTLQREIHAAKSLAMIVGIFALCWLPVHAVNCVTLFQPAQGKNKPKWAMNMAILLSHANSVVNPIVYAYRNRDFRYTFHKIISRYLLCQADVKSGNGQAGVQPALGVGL
Description: as §1, §2

T1 sequence (P29274 whole entry): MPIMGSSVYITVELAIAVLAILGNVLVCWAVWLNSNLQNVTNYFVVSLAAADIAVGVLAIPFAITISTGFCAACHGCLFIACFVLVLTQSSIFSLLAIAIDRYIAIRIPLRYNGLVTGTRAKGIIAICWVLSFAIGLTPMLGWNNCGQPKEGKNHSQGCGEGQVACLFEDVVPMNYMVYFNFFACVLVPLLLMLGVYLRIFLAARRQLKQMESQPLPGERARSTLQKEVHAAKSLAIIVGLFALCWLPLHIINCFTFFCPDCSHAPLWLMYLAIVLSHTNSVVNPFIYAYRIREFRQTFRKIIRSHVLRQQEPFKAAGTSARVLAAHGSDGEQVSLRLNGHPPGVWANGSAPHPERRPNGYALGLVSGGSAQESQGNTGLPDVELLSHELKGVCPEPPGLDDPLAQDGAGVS

| IC50 (human A2A receptor) [µM] | IC50 (human A1 receptor) [µM] | IC50 (human A3 receptor) [µM] | IC50 (A2B receptors) [µM] | Structure (SMILES) |
| --- | --- | --- | --- | --- |
| < 0.1 | < 1 | > 1 | > 1 | COc1ncc(-c2ccc(OC)c3nc(NC(=O)C4CC4)cnc23)cn1 [compound 156, N-[8-methoxy-5-(2-methoxypyrimidin-5-yl)quinoxalin-2-yl]cyclopropanecarboxamide] |
| < 0.01 | < 1 | < 1 | < 0.1 | COCCOc1cccc(-c2ccc(OC)c3nc(NC(=O)C4CC4)cnc23)c1 [compound 147, N-{8-methoxy-5-[3-(2-methoxyethoxy)phenyl]quinoxalin-2-yl}cyclopropanecarboxamide] |
| < 0.1 | < 0.01 | > 1 | < 0.1 | COc1ccc(-c2cccnc2)c2ncc(NC(=O)c3cnc(C)o3)nc12 [compound 138, N-[8-methoxy-5-(pyridin-3-yl)quinoxalin-2-yl]-2-methyl-1,3-oxazole-5-carboxamide] |
| < 0.01 | < 1 | > 1 | < 0.1 | COCCOc1cccc(-c2ccc(OC)c3nc(NC(=O)c4cnc(C)o4)cnc23)c1 [compound 148, N-{8-methoxy-5-[3-(2-methoxyethoxy)phenyl]quinoxalin-2-yl}-2-methyl-1,3-oxazole-5-carboxamide] |
| < 0.1 | < 1 | > 1 | > 1 | COCCOc1cccc(-c2ccc(OC)c3nc(NC(=O)c4cnc(C)s4)cnc23)c1 [compound 151, N-{8-methoxy-5-[3-(2-methoxyethoxy)phenyl]quinoxalin-2-yl}-2-methyl-1,3-thiazole-5-carboxamide] |
| < 0.01 | < 1 | > 1 | < 0.1 | COc1ccc(C2=CCOCC2)c2ncc(NC(=O)c3cnc(C)s3)nc12 [compound 134, N-[5-(3,6-dihydro-2H-pyran-4-yl)-8-methoxyquinoxalin-2-yl]-2-methyl-1,3-thiazole-5-carboxamide] |
| < 0.1 | < 1 | < 1 | < 1 | COc1ccc(-c2cccnc2)c2ncc(NC(=O)C3CC3)nc12 [compound 121, N-[8-methoxy-5-(pyridin-3-yl)quinoxalin-2-yl]cyclopropanecarboxamide] |
| < 0.1 | – | > 1 | – | COCCOc1cccc(-c2ccc(OC)c3nc(NC(=O)c4nnc(C)s4)cnc23)c1 [compound 152, N-{8-methoxy-5-[3-(2-methoxyethoxy)phenyl]quinoxalin-2-yl}-5-methyl-1,3,4-thiadiazole-2-carboxamide] |
| < 0.1 | > 1 | < 1 | – | COc1ccc(-c2ccccc2)c2ncc(NC(=O)C3(C(=O)N(C)C)CC3)nc12 [compound 149, N′1-(8-methoxy-5-phenylquinoxalin-2-yl)-N1,N1-dimethylcyclopropane-1,1-dicarboxamide] |
| < 0.01 | < 1 | – | > 1 | COc1ccc(C2=CCOCC2)c2ncc(NC(=O)N3CCC(C)(O)CC3)nc12 [compound 109, N-[5-(3,6-dihydro-2H-pyran-4-yl)-8-methoxyquinoxalin-2-yl]-4-hydroxy-4-methylpiperidine-1-carboxamide] |
| < 0.1 | > 1 | – | > 1 | COCCOCCn1cc(-c2ccc(OC)c3nc(NC(=O)N4CCC(C)(O)CC4)cnc23)cn1 [compound 119, 4-hydroxy-N-(8-methoxy-5-{1-[2-(2-methoxyethoxy)ethyl]-1H-pyrazol-4-yl}quinoxalin-2-yl)-4-methylpiperidine-1-carboxamide] |
| < 0.01 | > 1 | – | > 1 | COc1ccc(C2CCOCC2)c2ncc(NC(=O)c3cnn(C)c3)nc12 [compound 68] |

More lines, now with the values behind:

| Structure (SMILES) | IC50 (human A2A receptor) [µM] | IC50 (human A1 receptor) [µM] | IC50 (human A3 receptor) [µM] | IC50 (A2B receptors) [µM] |
| --- | --- | --- | --- | --- |
| COc1ncc(C2CCOCC2)c2ncc(NC(=O)C3CC3)nc12 [compound 106, Cyclopropanecarboxylic acid [5-methoxy-8-(tetrahydro-pyran-4-yl)-pyrido[3,4-b]pyrazin-3-yl]-amide] | < 0.01 | < 1 | > 1 | < 0.1 |
| COc1ccc(-c2cccc(F)c2F)c2ncc(NC(=O)C3CC3)nc12 [compound 123, N-[5-(2,3-difluorophenyl)-8-methoxyquinoxalin-2-yl]cyclopropanecarboxamide] | < 0.01 | < 1 | < 1 | < 0.1 |
| COc1ccc(-c2cc(F)ccc2F)c2ncc(NC(=O)c3cnc(C)o3)nc12 [compound 128, N-[5-(2,5-difluorophenyl)-8-methoxyquinoxalin-2-yl]-2-methyl-1,3-oxazole-5-carboxamide] | < 0.1 | > 1 | < 1 | – |
| COc1ccc(C2=CCOCC2)c2ncc(NC(=O)c3cnsc3)nc12 [compound 136, N-[5-(3,6-dihydro-2H-pyran-4-yl)-8-methoxyquinoxalin-2-yl]-1,2-thiazole-4-carboxamide] | < 0.01 | < 1 | > 1 | < 0.1 |
| COc1ccc(N2CCCCCC2)c2ncc(NC(=O)C3CC3)nc12 [compound 122, N-[5-(azepan-1-yl)-8-methoxyquinoxalin-2-yl]cyclopropanecarboxamide] | < 0.1 | > 1 | > 1 | – |
| COc1ccc(-c2cc(F)ccc2F)c2ncc(NC(=O)C3CC3)nc12 [compound 124, N-[5-(2,5-difluorophenyl)-8-methoxyquinoxalin-2-yl]cyclopropanecarboxamide] | < 0.01 | < 1 | < 1 | > 1 |
| COc1ccc(-c2ccccc2)c2ncc(NC(=O)c3cnc(C)s3)nc12 [compound 48] | < 0.01 | < 1 | > 1 | < 0.1 |
| COc1ccc(-c2ccccc2F)c2ncc(NC(=O)C3CC3)nc12 [compound 120, N-[5-(2-fluorophenyl)-8-methoxyquinoxalin-2-yl]cyclopropanecarboxamide] | < 0.01 | < 1 | < 1 | < 0.1 |
| COc1ccc(C2=CCOC2)c2ncc(NC(=O)C3CC3)nc12 [compound 141, N-[5-(2,5-dihydrofuran-3-yl)-8-methoxyquinoxalin-2-yl]cyclopropanecarboxamide] | < 0.1 | < 1 | < 1 | < 0.1 |
| COc1ccc(-c2ccc(F)cc2)c2ncc(NC(=O)c3cnc(C)o3)nc12 [compound 131, N-[5-(4-fluorophenyl)-8-methoxyquinoxalin-2-yl]-2-methyl-1,3-oxazole-5-carboxamide] | < 0.01 | < 1 | < 1 | < 0.1 |
| COc1ccc(-c2ccc(F)cc2)c2ncc(NC(=O)C3CC3)nc12 [compound 126, N-[5-(4-fluorophenyl)-8-methoxyquinoxalin-2-yl]cyclopropanecarboxamide] | < 0.01 | < 1 | < 1 | < 0.1 |
| COc1ccc(C2=CCOCC2)c2ncc(NC(=O)C3(N)CC3)nc12 [compound 137, 1-amino-N-[5-(3,6-dihydro-2H-pyran-4-yl)-8-methoxyquinoxalin-2-yl]cyclopropane-1-carboxamide] | < 0.01 | < 1 | – | > 1 |
| CCOC(=O)c1nnc(NC(=O)Nc2cnc3c(C4=CCOCC4)ccc(OC)c3n2)s1 [compound 143, ethyl 5-({[5-(3,6-dihydro-2H-pyran-4-yl)-8-methoxyquinoxalin-2-yl]carbamoyl}amino)-1,3,4-thiadiazole-2-carboxylate] | < 0.1 | > 1 | – | > 1 |
| COc1ccc(C2=CCOCC2)c2ncc(NC(=O)c3ncc(C4CCOC4)s3)nc12 (stereo not drawn) [compound 140, N-[5-(3,6-dihydro-2H-pyran-4-yl)-8-methoxyquinoxalin-2-yl]-5-(oxolan-3-yl)-1,3-thiazole-2-carboxamide] | < 0.01 | < 1 | – | < 0.1 |
